In data set [1] the target is T1, NPR-B (Homo sapiens, UniProt P20594).
T1 sequence (P20594 23-1047): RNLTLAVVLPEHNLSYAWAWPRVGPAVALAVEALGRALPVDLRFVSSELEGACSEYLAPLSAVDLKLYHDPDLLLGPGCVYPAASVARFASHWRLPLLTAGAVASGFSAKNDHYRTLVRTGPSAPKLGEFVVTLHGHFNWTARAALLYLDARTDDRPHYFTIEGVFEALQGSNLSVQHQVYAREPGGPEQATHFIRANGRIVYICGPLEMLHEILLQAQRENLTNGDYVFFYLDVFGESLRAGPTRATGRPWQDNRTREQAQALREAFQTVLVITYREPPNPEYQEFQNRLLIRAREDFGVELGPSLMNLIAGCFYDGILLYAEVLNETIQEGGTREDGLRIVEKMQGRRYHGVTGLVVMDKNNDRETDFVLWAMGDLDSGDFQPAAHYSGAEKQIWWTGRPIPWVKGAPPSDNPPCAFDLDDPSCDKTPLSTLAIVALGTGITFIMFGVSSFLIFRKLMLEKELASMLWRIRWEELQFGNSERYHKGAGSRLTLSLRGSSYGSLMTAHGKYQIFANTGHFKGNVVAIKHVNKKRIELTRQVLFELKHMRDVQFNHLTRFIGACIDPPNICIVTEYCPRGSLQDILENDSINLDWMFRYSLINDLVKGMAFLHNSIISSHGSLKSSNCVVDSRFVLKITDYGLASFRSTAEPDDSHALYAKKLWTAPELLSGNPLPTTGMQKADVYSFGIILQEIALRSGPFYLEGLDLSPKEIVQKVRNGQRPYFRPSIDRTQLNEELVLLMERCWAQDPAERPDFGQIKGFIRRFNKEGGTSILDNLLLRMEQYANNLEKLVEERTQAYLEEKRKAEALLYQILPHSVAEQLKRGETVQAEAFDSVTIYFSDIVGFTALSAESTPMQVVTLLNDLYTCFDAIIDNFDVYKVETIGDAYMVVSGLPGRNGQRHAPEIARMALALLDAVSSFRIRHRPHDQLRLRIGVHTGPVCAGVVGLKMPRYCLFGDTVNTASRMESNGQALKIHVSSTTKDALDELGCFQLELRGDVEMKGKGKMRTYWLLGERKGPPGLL
Briefly: Membrane guanylyl cyclase (cGMP) assay, NPR-B. In kind it is biochemical.

The target of data set [2] is NPR-A (Homo sapiens, UniProt P16066). Type of data set: biochemical.
Data set [3] deals with neutral endopeptidase (NEP) (Homo sapiens, UniProt P08473).

Consider 1 compound from US9266939B2, “Compositions comprising natriuretic peptides and methods of use thereof” (Alexion Pharmaceuticals, Inc., priority 2010, dated 2016).

Each structure is given as a SMILES string. Where “and” joins values, the source holds several entries; their conditions need not be identical. Identical values can stand only once. Peptide text beside a SMILES is read from it.

NPR-A, sequence (P16066 33-1061): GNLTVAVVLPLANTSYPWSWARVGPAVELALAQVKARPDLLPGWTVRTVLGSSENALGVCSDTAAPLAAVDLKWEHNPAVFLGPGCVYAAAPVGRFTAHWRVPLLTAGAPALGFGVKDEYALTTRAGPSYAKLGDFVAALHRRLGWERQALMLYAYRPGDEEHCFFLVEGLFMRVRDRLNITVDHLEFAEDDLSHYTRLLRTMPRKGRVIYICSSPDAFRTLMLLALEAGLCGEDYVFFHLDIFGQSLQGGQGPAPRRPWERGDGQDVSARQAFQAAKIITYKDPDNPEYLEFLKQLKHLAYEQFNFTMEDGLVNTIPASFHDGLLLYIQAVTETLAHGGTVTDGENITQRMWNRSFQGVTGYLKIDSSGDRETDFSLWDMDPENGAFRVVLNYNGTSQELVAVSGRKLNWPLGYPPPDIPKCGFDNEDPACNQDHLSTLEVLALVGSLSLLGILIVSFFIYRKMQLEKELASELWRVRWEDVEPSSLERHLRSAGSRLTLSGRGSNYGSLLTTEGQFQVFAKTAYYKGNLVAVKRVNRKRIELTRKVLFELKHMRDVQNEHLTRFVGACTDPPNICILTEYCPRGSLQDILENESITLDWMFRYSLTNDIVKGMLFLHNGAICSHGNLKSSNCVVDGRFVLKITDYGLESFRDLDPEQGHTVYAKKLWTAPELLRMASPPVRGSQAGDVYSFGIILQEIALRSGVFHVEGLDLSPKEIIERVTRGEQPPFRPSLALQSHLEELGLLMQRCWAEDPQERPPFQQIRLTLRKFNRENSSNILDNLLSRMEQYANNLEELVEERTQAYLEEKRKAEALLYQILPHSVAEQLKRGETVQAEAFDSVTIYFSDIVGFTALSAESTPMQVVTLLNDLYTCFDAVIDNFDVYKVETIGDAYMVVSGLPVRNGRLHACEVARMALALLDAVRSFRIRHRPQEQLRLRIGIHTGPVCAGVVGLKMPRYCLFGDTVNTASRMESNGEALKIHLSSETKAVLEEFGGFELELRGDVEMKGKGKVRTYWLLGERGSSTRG
neutral endopeptidase (NEP), sequence (P08473 whole entry): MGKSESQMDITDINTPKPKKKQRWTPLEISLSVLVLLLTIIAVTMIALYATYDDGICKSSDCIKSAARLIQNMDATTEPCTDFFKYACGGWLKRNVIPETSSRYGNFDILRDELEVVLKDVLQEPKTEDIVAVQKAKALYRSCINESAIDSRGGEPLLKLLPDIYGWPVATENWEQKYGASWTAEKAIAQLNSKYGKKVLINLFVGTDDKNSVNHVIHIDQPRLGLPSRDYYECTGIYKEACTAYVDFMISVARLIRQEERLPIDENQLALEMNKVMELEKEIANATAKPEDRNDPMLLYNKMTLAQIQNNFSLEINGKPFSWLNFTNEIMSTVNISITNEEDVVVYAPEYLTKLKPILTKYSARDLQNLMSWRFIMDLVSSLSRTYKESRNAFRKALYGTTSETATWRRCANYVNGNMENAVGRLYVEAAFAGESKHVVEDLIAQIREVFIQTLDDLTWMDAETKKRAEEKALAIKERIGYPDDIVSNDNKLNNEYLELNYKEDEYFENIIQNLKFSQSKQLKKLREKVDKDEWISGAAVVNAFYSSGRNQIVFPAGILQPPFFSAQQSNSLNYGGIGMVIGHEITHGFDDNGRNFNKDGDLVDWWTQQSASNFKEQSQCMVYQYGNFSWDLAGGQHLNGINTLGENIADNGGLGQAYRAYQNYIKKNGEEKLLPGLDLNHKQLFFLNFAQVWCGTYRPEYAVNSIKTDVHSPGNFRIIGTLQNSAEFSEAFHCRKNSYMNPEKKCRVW

Regarding `CC[C@H](C)[C@@H]1NC(=O)[C@H](CCCNC(=N)N)NC(=O)[C@H](CC(=O)O)NC(=O)[C@H](CC(C)C)NC(=O)[C@H](CCCCN)NC(=O)[C@H](CC(C)C)NC(=O)CNC(=O)[C@H](Cc2ccccc2)NC(=O)[C@@H](NC(=O)CNC(=O)[C@H](CCCCN)NC(=O)[C@H](CO)NC(=O)[C@H](CC(C)C)NC(=O)CN)CSSC[C@@H](C(=O)N2CCC[C@H]2C(=O)N[C@@H](CO)C(=O)N[C@@H](CO)C(=O)N[C@@H](CCCNC(=N)N)C(=O)N[C@@H](C)C(=O)N2CCC[C@H]2C(=O)N[C@@H](CCCNC(=N)N)C(=O)N2CCC[C@H]2C(=O)N[C@@H](CC(N)=O)C(=O)N[C@@H](C)C(=O)N2CCC[C@H]2C(=O)N[C@@H](CO)C(=O)N[C@H](C(=O)N[C@@H](CO)C(=O)N[C@@H](C)C(=O)O)[C@@H](C)O)NC(=O)CNC(=O)[C@H](CC(C)C)NC(=O)CNC(=O)[C@H](CO)NC(=O)[C@H](CCSC)NC(=O)[C@H](CO)NC(=O)CNC1=O` [CDNP-SRA] (HELM PEPTIDE1{G.L.S.K.G.C.F.G.L.K.L.D.R.I.G.S.M.S.G.L.G.C.P.S.S.R.A.P.R.P.N.A.P.S.T.S.A}$PEPTIDE1,PEPTIDE1,6:R3-22:R3$$$V2.0), in data set [1], the “% efficacy versus CDNP on NPR-B” value is reported as 118%; the “Approximate fold gain in selectivity versus CDNP” value is 1.2 fold and 1.23 fold; the “Approximate fold selectivity NPR-B versus NPR-A” value turned out to be 3.59 fold; the “NPR-B selective efficacy gain” value is given as 82%. In addition, in data set [2], the “% efficacy versus CDNP on NPR-A” value amounted to 36% and the “% loss in efficacy versus CDNP” value amounted to 82%. In data set [3], the “sensitivity to NEP degradation” value is “comparable NEP sensitivity”.
